Measurements: US20240239752A1, “BICYCLIC HETEROAROMATIC INHIBITORS OF KLK5” (BioCryst Pharmaceuticals, Inc., priority 2021, published 2024)

target: T1, recombinant human KLK5 (Homo sapiens, UniProt Q9Y337); test: Kallikrein (KLK) 5 enzymatic assay (Boc-VPR-AMC fluorogenic substrate); format: biochemical; conditions: recombinant human KLK5 0.1 μg/well, Boc-VPR-AMC 100 μM, pH 7.5, room temperature, 1% DMSO; tested a minimum of three times
T1 construct: purchased Novoprotein or R&D Systems C415 or 1108-SE
T1 sequence (Q9Y337 23-293): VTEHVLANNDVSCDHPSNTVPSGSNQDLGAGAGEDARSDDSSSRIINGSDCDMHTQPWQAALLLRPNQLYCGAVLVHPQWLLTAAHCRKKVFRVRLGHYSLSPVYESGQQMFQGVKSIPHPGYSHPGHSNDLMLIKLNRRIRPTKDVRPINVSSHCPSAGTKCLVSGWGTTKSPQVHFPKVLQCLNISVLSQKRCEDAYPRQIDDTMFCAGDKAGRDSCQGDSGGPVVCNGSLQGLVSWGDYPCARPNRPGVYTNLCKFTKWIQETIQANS
In short: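 Fluorogenic rate assay at pH 7.5 (0.1 M NaH2PO4, 1% DMSO, room temperature), run at least three times per compound. Compound was premixed with 0.1 μg/well recombinant human KLK5 before adding 100 μM Boc-VPR-AMC; AMC release was read at ex 380/em 460 nm, and IC50 derived from inhibition of rate vs DMSO control.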

| SMILES | IC50 |
| --- | --- |
| Nc1nccc2c(-c3ccc4c(c3)c(COc3ccccc3CC(=O)O)nn4C3CCCC3)cccc12 [Compound 223b, 2-(2-((5-(1-aminoisoquinolin-5-yl)-1-cyclopentyl-1H-indazol-3-yl)methoxy)phenyl)acetic acid] | < 1000 nM |
| N=C(N)c1cccc(-c2ccc3c(c2)c(COc2ccccc2CC(=O)O)nn3C2CCCC2)c1 [Compound 224b, 2-(2-((5-(3-carbamimidoylphenyl)-1-cyclopentyl-1H-indazol-3-yl)methoxy)phenyl)acetic acid] | < 1000 nM |
| Nc1nccc2c(-c3ccc4c(c3)c(COc3ccccc3CC(=O)O)nn4C3CCCCC3)cccc12 [Compound 225b, 2-(2-((5-(1-aminoisoquinolin-5-yl)-1-cyclohexyl-1H-indazol-3-yl)methoxy)phenyl)acetic acid] | < 1000 nM |
| N=C(N)c1cccc(-c2ccc3c(c2)c(COc2ccccc2CC(=O)O)nn3C2CCCCC2)c1 [Compound 226b, 2-(2-((5-(3-carbamimidoylphenyl)-1-cyclohexyl-1H-indazol-3-yl)methoxy)phenyl)acetic acid] | < 1000 nM |
| N=C(N)c1cccc(-c2cc(OCc3ccccn3)c3occ(COc4ccccc4CC(=O)O)c3c2)c1 [Compound 227i, 2-(2-((5-(3-carbamimidoylphenyl)-7-(pyridin-2-ylmethoxy)benzofuran-3-yl)methoxy)phenyl)acetic acid] | < 1000 nM |
| N=C(N)c1cccc(-c2cc(OCc3nccs3)c3occ(COc4ccccc4CC(=O)O)c3c2)c1 [Compound 228f, 2-(2-((5-(3-carbamimidoylphenyl)-7-(thiazol-2-ylmethoxy)benzofuran-3-yl)methoxy)phenyl)acetic acid] | < 1000 nM |
| COc1cc(-c2ccc3ccnc(N)c3c2)cc2c(COc3ccccc3CC(=O)O)coc12 [Compound 229f, 2-(2-((5-(1-aminoisoquinolin-7-yl)-7-methoxybenzofuran-3-yl)methoxy)phenyl)acetic acid] | 1000 to 10000 nM |
| COc1cc(-c2ccc3ccnc(N)c3c2)cc2c(COc3cc(C)ccc3CC(=O)O)coc12 [Compound 230d, 2-(2-((5-(1-aminoisoquinolin-7-yl)-7-methoxybenzofuran-3-yl)methoxy)-4-methylphenyl)acetic acid] | 1000 to 10000 nM |
| Nc1nccc2ccc(-c3cc4c(COc5ccccc5CC(=O)O)cccc4o3)cc12 [Compound 231f, 2-(2-((2-(1-aminoisoquinolin-7-yl)benzofuran-4-yl)methoxy)phenyl)acetic acid] | 1000 to 10000 nM |
| Nc1nccc2c(-c3cc4c(COc5ccccc5CC(=O)O)cccc4o3)cccc12 [Compound 232b, 2-(2-((2-(1-aminoisoquinolin-5-yl)benzofuran-4-yl)methoxy)phenyl)acetic acid] | > 10000 nM |
| Cc1cc(-c2ccc3ccnc(N)c3c2)cc2c(COc3ccccc3CC(=O)O)coc12 [Compound 233f, 2-(2-((5-(1-aminoisoquinolin-7-yl)-7-methylbenzofuran-3-yl)methoxy)phenyl)acetic acid] | 1000 to 10000 nM |
| COc1ccc(CC(=O)O)c(OCc2coc3c(OC)cc(-c4ccc5ccnc(N)c5c4)cc23)c1 [Compound 234c, 2-(2-((5-(1-aminoisoquinolin-7-yl)-7-methoxybenzofuran-3-yl)methoxy)-4-methoxyphenyl)acetic acid] | > 10000 nM |
| COc1cc(-c2cccc3c(N)nccc23)cc2c(COc3ccccc3CC(=O)O)coc12 [Compound 235b, 2-(2-((5-(1-aminoisoquinolin-5-yl)-7-methoxybenzofuran-3-yl)methoxy)phenyl)acetic acid] | 1000 to 10000 nM |
| COc1cc(-c2cccc(C(=N)N)c2)cc2c(COc3ccccc3CC(=O)O)coc12 [Compound 236b, 2-(2-((5-(3-carbamimidoylphenyl)-7-methoxybenzofuran-3-yl)methoxy)phenyl)acetic acid] | < 1000 nM |
| COc1cc(-c2ccc3ccnc(N)c3c2)cc2c(COc3c(C)cccc3CC(=O)O)coc12 [Compound 237c, 2-(2-((5-(1-aminoisoquinolin-7-yl)-7-methoxybenzofuran-3-yl)methoxy)-3-methylphenyl)acetic acid] | > 10000 nM |
| COc1c(C(=N)N)cccc1-c1ccc2c(c1)c(COc1ccccc1CC(=O)O)nn2C1CCC1 [Compound 238d, 2-(2-((5-(3-carbamimidoyl-2-methoxyphenyl)-1-cyclobutyl-1H-indazol-3-yl)methoxy)phenyl)acetic acid] | < 1000 nM |
| Cc1cccc(OCc2nn(C3CCCC3)c3ccc(-c4cccc5c(N)nccc45)cc23)c1CC(=O)O [Compound 239f, 2-(2-((5-(1-aminoisoquinolin-5-yl)-1-cyclopentyl-1H-indazol-3-yl)methoxy)-6-methylphenyl)acetic acid] | < 1000 nM |
| Nc1nccc2c(-c3ccc4c(c3)c(COc3ccccc3CC(=O)O)nn4CC3CC3)cccc12 [Compound 251c, 2-(2-((5-(1-aminoisoquinolin-5-yl)-1-(cyclopropylmethyl)-1H-indazol-3-yl)methoxy)phenyl)acetic acid] | < 1000 nM |
| Nc1nccc2c(-c3ccc4c(c3)c(COc3ccccc3CC(=O)O)nn4CC3CCC3)cccc12 [Compound 252h, 2-(2-((5-(1-aminoisoquinolin-5-yl)-1-(cyclobutylmethyl)-1H-indazol-3-yl)methoxy)phenyl)acetic acid] | < 1000 nM |
| N=C(N)c1cccc(-c2ccc3c(c2)c(COc2ccccc2CC(=O)O)nn3CC2CCC2)c1 [Compound 254c, 2-(2-((5-(3-carbamimidoylphenyl)-1-(cyclobutylmethyl)-1H-indazol-3-yl)methoxy)phenyl)acetic acid] | < 1000 nM |
| COc1c(C(=N)N)cccc1-c1ccc2c(c1)c(COc1ccccc1CC(=O)O)nn2CC1CCC1 [Compound 255d, 2-(2-((5-(3-carbamimidoyl-2-methoxyphenyl)-1-(cyclobutylmethyl)-1H-indazol-3-yl)methoxy)phenyl)acetic acid] | < 1000 nM |

Other lines, results leading:

| IC50 | SMILES |
| --- | --- |
| < 1000 nM | Cc1cccc(OCc2nn(C3CCCC3)c3ccc(-c4ccc5ccnc(N)c5c4)cc23)c1CC(=O)O [Compound 240b, 2-(2-((5-(1-aminoisoquinolin-7-yl)-1-cyclopentyl-1H-indazol-3-yl)methoxy)-6-methylphenyl)acetic acid] |
| < 1000 nM | CC(C(=O)O)c1ccccc1OCc1nn(C2CCOC2)c2ccc(-c3cccc4c(N)nccc34)cc12 (stereo not drawn) [Compound 241f, 2-(2-((5-(1-aminoisoquinolin-5-yl)-1-(tetrahydrofuran-3-yl)-1H-indazol-3-yl)methoxy)phenyl)propanoic acid] |
| < 1000 nM | CC(C(=O)O)c1ccccc1OCc1nn(C2CCOC2)c2ccc(-c3ccc4ccnc(N)c4c3)cc12 (stereo not drawn) [Compound 242b, 2-(2-((5-(1-aminoisoquinolin-7-yl)-1-(tetrahydrofuran-3-yl)-1H-indazol-3-yl)methoxy)phenyl)propanoic acid] |
| < 1000 nM | Nc1nccc2c(-c3ccc4c(c3)c(COc3ccccc3CC(=O)O)nn4[C@H]3CCOC3)cccc12 [Compound 243h, (S)-2-(2-((5-(1-aminoisoquinolin-5-yl)-1-(tetrahydrofuran-3-yl)-1H-indazol-3-yl)methoxy)phenyl)acetic acid] |
| < 1000 nM | Nc1nccc2ccc(-c3ccc4c(c3)c(COc3ccccc3CC(=O)O)nn4[C@H]3CCOC3)cc12 [Compound 244b, (S)-2-(2-((5-(1-aminoisoquinolin-7-yl)-1-(tetrahydrofuran-3-yl)-1H-indazol-3-yl)methoxy)phenyl)acetic acid] |
| < 1000 nM | Nc1nccc2c(-c3ccc4c(c3)c(COc3ccccc3CC(=O)O)nn4[C@@H]3CCOC3)cccc12 [Compound 245h, (R)-2-(2-((5-(1-aminoisoquinolin-5-yl)-1-(tetrahydrofuran-3-yl)-1H-indazol-3-yl)methoxy)phenyl)acetic acid] |
| < 1000 nM | Nc1nccc2ccc(-c3ccc4c(c3)c(COc3ccccc3CC(=O)O)nn4[C@@H]3CCOC3)cc12 [Compound 246b, (R)-2-(2-((5-(1-aminoisoquinolin-7-yl)-1-(tetrahydrofuran-3-yl)-1H-indazol-3-yl)methoxy)phenyl)acetic acid] |
| < 1000 nM | Cc1cccc(OCc2nn(C3CCOC3)c3ccc(-c4cccc5c(N)nccc45)cc23)c1CC(=O)O (stereo not drawn) [Compound 247c, 2-(2-((5-(1-aminoisoquinolin-5-yl)-1-(tetrahydrofuran-3-yl)-1H-indazol-3-yl)methoxy)-6-methylphenyl)acetic acid] |
| < 1000 nM | Cc1cccc(OCc2nn(C3CCOC3)c3ccc(-c4ccc5ccnc(N)c5c4)cc23)c1CC(=O)O (stereo not drawn) [Compound 248b, 2-(2-((5-(1-aminoisoquinolin-7-yl)-1-(tetrahydrofuran-3-yl)-1H-indazol-3-yl)methoxy)-6-methylphenyl)acetic acid] |
| < 1000 nM | Nc1nccc2c(-c3ccc4c(c3)c(COc3ccccc3CC(=O)O)nn4C3CCOC3)cccc12 (stereo not drawn) [Compound 249b, 2-(2-((5-(1-aminoisoquinolin-5-yl)-1-(tetrahydrofuran-3-yl)-1H-indazol-3-yl)methoxy)phenyl)acetic acid] |
| < 1000 nM | Nc1nccc2ccc(-c3ccc4c(c3)c(COc3ccccc3CC(=O)O)nn4C3CCOC3)cc12 (stereo not drawn) [Compound 250b, 2-(2-((5-(1-aminoisoquinolin-7-yl)-1-(tetrahydrofuran-3-yl)-1H-indazol-3-yl)methoxy)phenyl)acetic acid] |
| < 1000 nM | Nc1nccc2ccc(-c3ccc4c(c3)c(COc3ccccc3CC(=O)O)nn4CC3CCC3)cc12 [Compound 253b, 2-(2-((5-(1-aminoisoquinolin-7-yl)-1-(cyclobutylmethyl)-1H-indazol-3-yl)methoxy)phenyl)acetic acid] |
